Where two headings read alike, the source gives them in different places.
Columns and labels:
Format in all cases: in vivo
corn (Zea mays) = assay: Test B pre-/postemergence plant response; conditions: for Corn plant response rating (crop injury, 0 = no effect, 100 = complete kill) at 16 g/ha / Corn plant response rating (crop injury, 0 = no effect, 100 = complete kill) at 31 g/ha / Corn plant response rating (crop injury, 0 = no effect, 100 = complete kill) at 62 g/ha: Zea mays; for Corn plant response rating (crop injury, 0 = no effect, 100 = complete kill) at 16 g/ha: 16 g ai/ha; for Corn plant response rating (crop injury, 0 = no effect, 100 = complete kill) at 31 g/ha: 31 g ai/ha; for Corn plant response rating (crop injury, 0 = no effect, 100 = complete kill) at 62 g/ha: 62 g ai/ha
Summary of the method: (§1)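 Visual scoring from 0 (no effect) to 100 (complete control) against untreated controls was done 13 to 15 days after greenhouse treatment. Chemicals were formulated in a surfactant-containing non-phytotoxic solvent and applied to soil preemergence or to 1- to 4-leaf (2-18 cm) plants postemergence.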

[1] = system: surinam grass (Brachiaria decumbens); assay: Test B pre-/postemergence plant response; conditions: for Surinam Grass plant response rating: 8 g ai/ha; for pest or weed control at 16 g/ha: 16 g ai/ha; for pest or weed control at 62 g/ha: 62 g ai/ha
Summary of the method: as §1

[2] = system: green foxtail (Setaria viridis); assay: Test B pre-/postemergence plant response; conditions: for Foxtail, Green plant response rating: 8 g ai/ha; for pest or weed control at 16 g/ha / pest or weed control at 31 g/ha / pest or weed control at 62 g/ha: Setaria viridis, read-out: Plant response rating, Foxtail, Green; for pest or weed control at 16 g/ha: 16 g ai/ha; for pest or weed control at 31 g/ha: 31 g ai/ha; for pest or weed control at 62 g/ha: 62 g ai/ha
Summary of the method: as §1

wild oat (Avena fatua) = assay: Test B pre-/postemergence plant response; conditions: for pest or weed control at 16 g/ha / pest or weed control at 31 g/ha / pest or weed control at 62 g/ha: Avena fatua, read-out: Plant response rating, Oat, Wild; for pest or weed control at 16 g/ha: 16 g ai/ha; for pest or weed control at 31 g/ha: 31 g ai/ha; for pest or weed control at 62 g/ha: 62 g ai/ha
Summary of the method: as §1

[3] = system: umbrella sedge (Cyperus difformis); assay: Test B flooded paddy test plant response; conditions: Cyperus difformis, read-out: Plant response rating, Sedge, Umbrella
Summary of the method: (§2)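 Compounds were added directly to paddy water over 2-leaf-stage plants in pots flooded 3 cm above soil, water depth maintained. Visual injury scored against controls after 13 to 15 days in greenhouse, 0 (none) to 100 (complete control); dash indicates no result.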

[4] = system: barnyardgrass (Echinochloa crus-galli); assay: Test B flooded paddy test plant response; conditions: Echinochloa crus-galli, read-out: Plant response rating, Barnyardgrass
Summary of the method: as §2

rice (Oryza sativa) = assay: Test B flooded paddy test plant response; conditions: Oryza sativa, read-out: Plant response rating, Rice
Summary of the method: as §2

[5] = system: ducksalad (Heteranthera limosa); assay: Test B flooded paddy test plant response; conditions: Heteranthera limosa, read-out: Plant response rating, Ducksalad
Summary of the method: as §2

[6] = post-emergence, Postemergence, scale 0 to 100
[7] = post-emergence, Postemergence, scale 0 to 100, 0 no effect, 100 complete control
[8] = pre-emergence, Preemergence, scale 0 to 100 (0 no effect, 100 complete control)
[9] = pre-emergence, Preemergence, 0 to 100 scale, 0 no effect, 100 complete control
[10] = pre-emergence, Preemergence, scale 0 to 100
[11] = Flood (flooded paddy test), 62 g ai/ha, scale 0 to 100, 0 no effect, 100 complete control
[12] = Flood (flooded paddy test), 125 g ai/ha, scale 0 to 100, 0 no effect, 100 complete control
[13] = Flood (flooded paddy test), 250 g ai/ha, scale 0 to 100, 0 no effect, 100 complete control
[14] = Flood, 31 g ai/ha, scale 0 to 100

`CCc1c(C)c(-c2ccc(Cl)cc2)nn1-c1c(O)cnn(C)c1=O` [Compound 26, 4-[3-(4-chlorophenyl)-5-ethyl-4-methyl-1H-pyrazol-1-yl]-5-hydroxy-2-methyl-3(2H)-pyridazinone] was tested, and the “Corn plant response rating” value (corn (Zea mays); Preemergence, 8 g ai/ha, scale 0 to 100) was 15, the Corn plant response rating (crop injury, 0 = no effect, 100 = complete kill) at 16 g/ha (corn (Zea mays); [6]) was 0% and the Corn plant response rating (crop injury, 0 = no effect, 100 = complete kill) at 31 g/ha (corn (Zea mays); [7]) was 100%. For the same compound, the Corn plant response rating (crop injury, 0 = no effect, 100 = complete kill) at 62 g/ha (corn (Zea mays); [7]) was 100%, the Corn plant response rating (crop injury, 0 = no effect, 100 = complete kill) at 16 g/ha (corn (Zea mays); [8]) was 30% and the Corn plant response rating (crop injury, 0 = no effect, 100 = complete kill) at 31 g/ha (corn (Zea mays); [9]) was 70%. The Corn plant response rating (crop injury, 0 = no effect, 100 = complete kill) at 62 g/ha (corn (Zea mays); [10]) was 98%, the “Surinam Grass plant response rating” value ([1]; postemergence, 0-100 scale) was 85 and the “Surinam Grass plant response rating” value ([1]; Preemergence, scale 0 to 100) was 75. The pest or weed control at 16 g/ha ([1]; Urochloa decumbens, post-emergence, Postemergence, scale 0 to 100, read-out: Plant response rating, Surinam Grass) was 85%, the pest or weed control at 62 g/ha ([1]; Urochloa decumbens, post-emergence, Postemergence, scale 0 to 100, 0 no effect, 100 complete control, read-out: Plant response rating, Surinam Grass) was 100% and the pest or weed control at 16 g/ha ([1]; Urochloa decumbens, pre-emergence, Preemergence, scale 0 to 100 (0 no effect, 100 complete control), read-out: Plant response rating, Surinam Grass) was 85%. The pest or weed control at 31 g/ha ([1]; Urochloa decumbens, pre-emergence, Preemergence, 31 g ai/ha, 0 to 100 scale, 0 no effect, 100 complete control, read-out: Plant response rating, Surinam Grass) was 100%, the pest or weed control at 62 g/ha ([1]; Urochloa decumbens, pre-emergence, Preemergence, scale 0 to 100, read-out: Plant response rating, Surinam Grass) was 100% and the “Foxtail, Green plant response rating” value ([2]; postemergence, 0-100 scale) was 60. For the same compound, the “Foxtail, Green plant response rating” value ([2]; Preemergence, scale 0 to 100) was 98, the pest or weed control at 16 g/ha [2, 6] was 80% and the pest or weed control at 31 g/ha [2, 7] was 80%. The pest or weed control at 62 g/ha [2, 7] was 98%, the pest or weed control at 16 g/ha [2, 8] was 100% and the pest or weed control at 31 g/ha [2, 9] was 100%. The pest or weed control at 62 g/ha [2, 10] was 100%, the “Oat, Wild plant response rating” value (wild oat (Avena fatua); 8 g ai/ha, postemergence, 0-100 scale) was 85 and the pest or weed control at 16 g/ha (wild oat (Avena fatua); [6]) was 90%. It also gave a pest or weed control at 31 g/ha (wild oat (Avena fatua); [7]) of 90%, a pest or weed control at 62 g/ha (wild oat (Avena fatua); [7]) of 100% and a pest or weed control at 16 g/ha (wild oat (Avena fatua); [8]) of 80%. It also gave a pest or weed control at 31 g/ha (wild oat (Avena fatua); [9]) of 85%, a pest or weed control at 62 g/ha (wild oat (Avena fatua); [10]) of 85% and a pest or weed control at 62 g/ha [3, 11] of 0%. The pest or weed control at 125 g/ha [3, 12] was 0%, the pest or weed control at 250 g/ha [3, 13] was 75% and the pest or weed control at 31 g/ha [3, 14] was 0%. It also gave a pest or weed control at 62 g/ha [4, 11] of 0%, a pest or weed control at 125 g/ha [4, 12] of 0% and a pest or weed control at 250 g/ha [4, 13] of 20%. For the same compound, the pest or weed control at 31 g/ha [4, 14] was 0%, the plant injury at 62 g/ha (rice (Oryza sativa); [11]) was 0% and the plant injury at 125 g/ha (rice (Oryza sativa); [12]) was 0%. The plant injury at 250 g/ha (rice (Oryza sativa); [13]) was 0%, the plant injury at 31 g/ha (rice (Oryza sativa); [14]) was 0% and the pest or weed control at 62 g/ha [5, 11] was 50%. For the same compound, the pest or weed control at 250 g/ha [5, 13] was 70% and the pest or weed control at 31 g/ha [5, 14] was 40%.
